“Also recorded” adds a separate entry of the source.
What was measured:
nor-1 promoter [1] = type: cell-based, Aspergillus parasiticus
nor-1 promoter [2] = type: cell-based, Aspergillus parasiticus; remark: listed apart in the source
aflatoxin biosynthesis = type: cell-based, Aspergillus parasiticus SU-1
nor-1 gene = type: cell-based, Aspergillus parasiticus SU-1
ipnA promoter = type: cell-based, Aspergillus nidulans
tri5 promoter = type: cell-based, Gibberella zeae
ver-1 promoter = test: Transcription from the ver-1 promoter; type: cell-based, Aspergillus parasiticus

CCCCC/C=C/CCCCCC/C=C/C=C/C(=O)N1CCCCC1 [Cp2]
Transcription from the nor-1 promoter (nor-1 promoter [1]): inhibit transcription | Fungus growth on TLC plates (nor-1 promoter [2]): Fungal growth was seen; also recorded: did not inhibit fungus growth | Inhibition of GUS in TLC bioassay (nor-1 promoter [2]): inhibitory properties | Concentration that appeared to completely inhibit biosynthesis of aflatoxin (aflatoxin biosynthesis): greater than 26 μg/ml | Amounts of aflatoxins B1 and G1 (aflatoxin biosynthesis; 2.6-78 μg/ml, 48 hours): reduction | Transcription of the nor-1 gene (nor-1 gene): inhibits | nor-1 transcription at lower concentrations (nor-1 gene): did not completely inhibit | Transcription from the ipnA promoter (GUS) (ipnA promoter): inhibit transcription; also recorded: inhibited | Transcription from the tri5 promoter (GUS) (tri5 promoter): inhibit transcription; also recorded: inhibited | Transcription from the ver-1 promoter (ver-1 promoter): inhibit transcription

From patent US7041678B2 (priority 1999, dated 2006)
